The values that follow come from US11459315B2, “Modulators of methyl modifying enzymes, compositions and uses thereof” (Constellation Pharmaceuticals, Inc., priority 2017, dated 2022).

The target in one assay is PRC2 containing wt EZH2 (Homo sapiens (Human), UniProt Q15910). Description: EZH2 biochemical assay (IC50), 3H-SAM incorporation into biotinylated H3 peptide. Put shortly:
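Activity was measured as ³H-methyl transfer to a biotinylated H3K27me1 peptide over 18-22 h at room temperature, with capture on streptavidin flash plates. The 30 pM wt-EZH2 PRC2 complex was first pre-incubated 3-5 h with compound, 450 nM SAM/450 nM ³H-SAM and 2 µM H3K27me3 activator (pH 8.5, 0.8% DMSO). Four-parameter fits gave IC50.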

Assay [1] has as its system H3K27me3 mark in HeLa cells (EZH2). Kind of assay: H3K27me3 Alpha Hela Assay (AlphaLISA). It is filed as cell-based. Particulars: HeLa cells, 72 hrs, read-out: EZH2 Cell H3K27me3 Alpha HeLa (EC50 K27me3). A digest of the protocol:
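HeLa cells (1,000/well) treated with ten 3-fold compound doses for 72 h at 37 °C; lysates extracted and H3K27me3 detected by AlphaLISA with anti-K27me3 acceptor beads, biotinylated anti-H3 (3 nM) and streptavidin donor beads. EC50 from DMSO-normalized dose-response curves; duplicate plate assessed viability.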
In general terms: Bead proximity is the source of the signal in Alpha formats.

Where [2] appears, read: 30 pM PRC2 containing wt EZH2; 3-5 h pre-incubation; read-out: EZH2 (IC50).
Where [3] appears, read: read-out: EZH2 (IC50); 30 pM PRC2 containing wt EZH2; 3-5 h pre-incubation.
[4] abbreviates: EZH2 (IC50), 30 pM PRC2 containing wt EZH2; 3-5 h pre-incubation.

Each structure is given as a SMILES string. Like-named read-outs stand apart in the source and are kept apart here.

Sequence of PRC2 containing wt EZH2 (Q15910 whole entry): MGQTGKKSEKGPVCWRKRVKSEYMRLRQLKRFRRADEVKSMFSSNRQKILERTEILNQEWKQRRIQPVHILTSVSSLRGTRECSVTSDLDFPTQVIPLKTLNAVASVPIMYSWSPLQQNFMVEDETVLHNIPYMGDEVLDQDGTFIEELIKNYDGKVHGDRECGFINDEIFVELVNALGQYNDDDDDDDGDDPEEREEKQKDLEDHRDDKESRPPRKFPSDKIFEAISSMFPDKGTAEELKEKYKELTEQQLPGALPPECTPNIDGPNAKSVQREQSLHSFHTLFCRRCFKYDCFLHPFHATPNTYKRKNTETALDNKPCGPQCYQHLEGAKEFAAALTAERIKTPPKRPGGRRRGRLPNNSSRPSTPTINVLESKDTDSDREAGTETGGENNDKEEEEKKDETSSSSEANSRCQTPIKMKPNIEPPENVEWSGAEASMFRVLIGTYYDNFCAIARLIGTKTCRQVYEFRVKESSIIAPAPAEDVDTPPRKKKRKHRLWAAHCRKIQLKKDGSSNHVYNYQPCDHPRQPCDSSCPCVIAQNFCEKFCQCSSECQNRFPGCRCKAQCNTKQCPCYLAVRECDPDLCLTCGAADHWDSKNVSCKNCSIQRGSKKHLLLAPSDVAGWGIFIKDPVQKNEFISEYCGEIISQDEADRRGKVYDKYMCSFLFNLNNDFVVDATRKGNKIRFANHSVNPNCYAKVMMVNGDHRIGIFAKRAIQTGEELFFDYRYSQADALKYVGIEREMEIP
Sequence of PRC2 containing wt EZH2 (O75530 whole entry partner): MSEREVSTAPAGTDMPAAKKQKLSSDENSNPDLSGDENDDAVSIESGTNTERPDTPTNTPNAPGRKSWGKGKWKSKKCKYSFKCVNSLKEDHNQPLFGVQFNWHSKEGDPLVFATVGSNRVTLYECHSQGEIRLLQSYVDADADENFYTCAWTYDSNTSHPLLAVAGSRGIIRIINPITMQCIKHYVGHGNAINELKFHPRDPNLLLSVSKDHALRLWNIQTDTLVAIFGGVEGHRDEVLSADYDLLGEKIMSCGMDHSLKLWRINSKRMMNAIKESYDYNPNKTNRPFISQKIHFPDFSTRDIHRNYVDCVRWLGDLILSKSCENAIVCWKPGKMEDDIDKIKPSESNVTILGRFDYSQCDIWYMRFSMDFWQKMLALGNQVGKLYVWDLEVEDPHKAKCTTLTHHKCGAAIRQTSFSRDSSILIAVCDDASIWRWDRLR
Sequence of PRC2 containing wt EZH2 (Q15022 whole entry partner): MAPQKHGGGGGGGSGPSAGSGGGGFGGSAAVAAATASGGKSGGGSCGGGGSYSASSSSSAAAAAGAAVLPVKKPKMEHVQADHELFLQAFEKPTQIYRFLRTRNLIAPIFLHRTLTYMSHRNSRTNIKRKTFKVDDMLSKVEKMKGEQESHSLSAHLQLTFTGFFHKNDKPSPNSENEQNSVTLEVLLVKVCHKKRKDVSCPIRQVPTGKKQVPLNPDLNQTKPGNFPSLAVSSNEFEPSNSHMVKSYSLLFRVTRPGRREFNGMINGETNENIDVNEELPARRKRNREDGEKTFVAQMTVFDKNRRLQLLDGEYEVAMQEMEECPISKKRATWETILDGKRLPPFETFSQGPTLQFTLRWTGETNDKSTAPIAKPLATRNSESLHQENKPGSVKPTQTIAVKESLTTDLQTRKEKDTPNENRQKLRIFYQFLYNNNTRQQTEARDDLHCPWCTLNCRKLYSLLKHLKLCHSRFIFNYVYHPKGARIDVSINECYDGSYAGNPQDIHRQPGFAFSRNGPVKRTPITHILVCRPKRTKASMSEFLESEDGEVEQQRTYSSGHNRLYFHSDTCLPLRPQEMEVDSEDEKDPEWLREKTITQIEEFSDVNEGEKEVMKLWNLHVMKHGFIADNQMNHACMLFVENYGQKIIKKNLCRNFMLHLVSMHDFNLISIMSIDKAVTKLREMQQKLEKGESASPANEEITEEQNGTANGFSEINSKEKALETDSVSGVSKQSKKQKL
Sequence of PRC2 containing wt EZH2 (Q09028 whole entry partner): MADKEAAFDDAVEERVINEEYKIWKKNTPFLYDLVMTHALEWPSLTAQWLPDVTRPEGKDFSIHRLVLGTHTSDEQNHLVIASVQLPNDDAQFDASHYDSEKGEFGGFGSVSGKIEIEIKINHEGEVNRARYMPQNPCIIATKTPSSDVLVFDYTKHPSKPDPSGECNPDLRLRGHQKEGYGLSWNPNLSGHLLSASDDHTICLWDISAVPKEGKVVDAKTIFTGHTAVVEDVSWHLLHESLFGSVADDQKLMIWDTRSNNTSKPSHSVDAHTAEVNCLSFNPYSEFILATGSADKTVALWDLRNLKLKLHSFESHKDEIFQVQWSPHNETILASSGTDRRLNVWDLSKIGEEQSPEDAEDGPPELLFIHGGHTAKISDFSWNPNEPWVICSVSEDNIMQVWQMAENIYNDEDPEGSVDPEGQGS
Sequence of PRC2 containing wt EZH2 (Q6ZN18 whole entry partner): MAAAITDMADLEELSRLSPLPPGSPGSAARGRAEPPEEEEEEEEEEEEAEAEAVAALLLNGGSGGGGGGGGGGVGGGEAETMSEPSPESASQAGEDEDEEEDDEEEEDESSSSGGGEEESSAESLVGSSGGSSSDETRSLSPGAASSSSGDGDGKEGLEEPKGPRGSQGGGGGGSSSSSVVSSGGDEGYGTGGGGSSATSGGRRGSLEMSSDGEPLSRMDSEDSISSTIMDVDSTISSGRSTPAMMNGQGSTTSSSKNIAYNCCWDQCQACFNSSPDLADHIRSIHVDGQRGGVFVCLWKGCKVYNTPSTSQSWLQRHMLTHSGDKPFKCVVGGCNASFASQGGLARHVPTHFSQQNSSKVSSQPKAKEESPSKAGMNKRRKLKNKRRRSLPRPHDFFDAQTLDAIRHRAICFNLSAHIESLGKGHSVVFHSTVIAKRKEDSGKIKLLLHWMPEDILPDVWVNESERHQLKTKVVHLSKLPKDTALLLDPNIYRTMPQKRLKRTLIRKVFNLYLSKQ

On to `CSc1cc(C)[nH]c(=O)c1CNC(=O)c1c(C)n([C@H](C)C2CCC(N3CC(n4ccnn4)C3)CC2)c2ccccc12` (stereo partly drawn) [Example 160, 1-((R)-1-(4-(3-(1H-1,2,3-triazol-1-yl)azetidin-1-yl)cyclohexyl)ethyl)-2-methyl-N-((6-methyl-4-(methylthio)-2-oxo-1,2-dihydropyridin-3-yl)methyl)-1H-indole-3-carboxamide], for which the IC50 at PRC2 containing wt EZH2 (setting [2]) was under 0.5 nM. Further, the EC50 in assay [1] (Homo sapiens, HeLa, 72 h) is under 10 nM.
Consider `CSc1cc(C)[nH]c(=O)c1CNC(=O)c1c(C)n([C@H](C)C2OCC(NC(C)(C)C)CO2)c2ccccc12` (single isomer, unassigned) [5 (isomer 2)], for which, at PRC2 containing wt EZH2 (setting [2]), the IC50 is under 0.5 nM. For the same compound, the EC50 in assay [1] was under 10 nM.
For the compound `CSc1cc(C)[nH]c(=O)c1CNC(=O)c1c(C)n([C@H](C)C2CCC(NC3(C(F)(F)F)COC3)CC2)c2ncncc12` (single isomer, unassigned) [164 (isomer 1)], the IC50 at PRC2 containing wt EZH2 (setting [2]) was under 0.5 nM. Moreover, the EC50 in assay [1] (Homo sapiens, HeLa, 72 h) was under 10 nM.
In the case of `CSc1cc(C)[nH]c(=O)c1CNC(=O)c1c(C)n([C@H](C)C2CCC(N3CC(F)C3)CC2)c2ncc(F)cc12` (single isomer, unassigned) [84 (isomer 2)], the IC50 on PRC2 containing wt EZH2 (setting [3]) was under 0.5 nM. Also, the EC50 in assay [1] fell in the range of 10 to 100 nM.
For `CSc1cc(C)[nH]c(=O)c1CNC(=O)c1c(C)n([C@H](C)C2CCC(N3CC(OC(C)(C)C)C3)CC2)c2ncccc12` (single isomer, unassigned) [112 (isomer 2)], the IC50 at PRC2 containing wt EZH2 (setting [2]) was under 0.5 nM. In addition, in assay [1], the EC50 was in the range of 10 to 100 nM.
Consider `Cc1cc(SC2CCC2)c(CNC(=O)c2c(C)n([C@H](C)C3CCN(CC(F)(F)F)CC3)c3ccccc23)c(=O)[nH]1` [Example 109, (R)-N-((4-(cyclobutylthio)-6-methyl-2-oxo-1,2-dihydropyridin-3-yl)methyl)-2-methyl-1-(1-(1-(2,2,2-trifluoroethyl)piperidin-4-yl)ethyl)-1H-indole-3-carboxamide], for which, at PRC2 containing wt EZH2 (setting [2]), the IC50 was under 0.5 nM. For the same compound, the EC50 in assay [1] (Homo sapiens, HeLa, 72 h) was 10 to 100 nM.
`CSc1cc(C)[nH]c(=O)c1CNC(=O)c1c(C)n([C@H](C)[C@H]2CCNC[C@@H]2F)c2ccccc12` [Example 37, 1-((R)-1-((3R,4R)-3-fluoropiperidin-4-yl)ethyl)-2-methyl-N-((6-methyl-4-(methylthio)-2-oxo-1,2-dihydropyridin-3-yl)methyl)-1H-indole-3-carboxamide] showed an IC50 on PRC2 containing wt EZH2 (setting [4]) of under 0.5 nM. Also, in assay [1] (Homo sapiens, HeLa, 72 h), the EC50 was in the range of 10 to 100 nM.
In the case of `COC1CN(C2CCC([C@@H](C)n3c(C)c(C(=O)NCc4c(SC)cc(C)[nH]c4=O)c4cc(Cl)cnc43)CC2)C1` (single isomer, unassigned) [106 (isomer 2)], at PRC2 containing wt EZH2 (setting [2]), the IC50 was under 0.5 nM. The EC50 in assay [1] lay in the range of 10 to 100 nM.
In the case of `CSc1cc(C)[nH]c(=O)c1CNC(=O)c1c(C)n([C@H](C)[C@@H]2CCN(C3CC3)CC2(F)F)c2ncccc12` (single isomer, unassigned) [70 (isomer 2)], the IC50 at PRC2 containing wt EZH2 (setting [4]) lay within 0.5 to 5 nM. Also, in assay [1] (Homo sapiens, HeLa, 72 h), the EC50 was over 100 nM.
In the same order, the values of `CSc1cc(C)[nH]c(=O)c1CNC(=O)c1c(C)n([C@H](C)[C@H]2CCN(C)C[C@@H]2F)c2ccccc12` [Example 42, 1-((R)-1-((3R,4R)-3-fluoro-1-methylpiperidin-4-yl)ethyl)-2-methyl-N-((6-methyl-4-(methylthio)-2-oxo-1,2-dihydropyridin-3-yl)methyl)-1H-indole-3-carboxamide] are under 0.5 nM and under 10 nM.
Regarding `COC1CN(C2CCC([C@@H](C)n3c(C)c(C(=O)NCc4c(SC)cc(C)[nH]c4=O)c4ccccc43)CC2)C1` (single isomer, unassigned) [4 (isomer 2)], at PRC2 containing wt EZH2 (setting [3]), the IC50 is under 0.5 nM. In addition, the EC50 in assay [1] fell in the range of 10 to 100 nM.
`CSc1cc(C)[nH]c(=O)c1CNC(=O)c1c(C)n([C@H](C)C2CCN(C3CC3)CC2)c2ncc(Cl)cc12` [Example 69, (R)-5-chloro-1-(1-(1-cyclopropylpiperidin-4-yl)ethyl)-2-methyl-N-((6-methyl-4-(methylthio)-2-oxo-1,2-dihydropyridin-3-yl)methyl)-1H-pyrrolo[2,3-b]pyridine-3-carboxamide] returned an IC50 at PRC2 containing wt EZH2 (setting [4]) of under 0.5 nM. The EC50 in assay [1] (Homo sapiens, HeLa, 72 h) was under 10 nM.

By IC50 is commonly meant the point on the concentration scale where inhibition reaches its midpoint. As a reminder, the EC50 is the concentration giving half of the maximal effect.
